As usually defined, the IC50 is the concentration at which inhibition is half-maximal.

The values below come from patent publication US8993585B2, “Cyclic amine substituted pyrimidinediamines as PKC inhibitors” (Rigel Pharmaceuticals, Inc., priority 2007, dated 2015).

One assay concerns the target T1, PKC mu (Homo sapiens, UniProt Q15139).
T1 sequence (Q15139 1-912): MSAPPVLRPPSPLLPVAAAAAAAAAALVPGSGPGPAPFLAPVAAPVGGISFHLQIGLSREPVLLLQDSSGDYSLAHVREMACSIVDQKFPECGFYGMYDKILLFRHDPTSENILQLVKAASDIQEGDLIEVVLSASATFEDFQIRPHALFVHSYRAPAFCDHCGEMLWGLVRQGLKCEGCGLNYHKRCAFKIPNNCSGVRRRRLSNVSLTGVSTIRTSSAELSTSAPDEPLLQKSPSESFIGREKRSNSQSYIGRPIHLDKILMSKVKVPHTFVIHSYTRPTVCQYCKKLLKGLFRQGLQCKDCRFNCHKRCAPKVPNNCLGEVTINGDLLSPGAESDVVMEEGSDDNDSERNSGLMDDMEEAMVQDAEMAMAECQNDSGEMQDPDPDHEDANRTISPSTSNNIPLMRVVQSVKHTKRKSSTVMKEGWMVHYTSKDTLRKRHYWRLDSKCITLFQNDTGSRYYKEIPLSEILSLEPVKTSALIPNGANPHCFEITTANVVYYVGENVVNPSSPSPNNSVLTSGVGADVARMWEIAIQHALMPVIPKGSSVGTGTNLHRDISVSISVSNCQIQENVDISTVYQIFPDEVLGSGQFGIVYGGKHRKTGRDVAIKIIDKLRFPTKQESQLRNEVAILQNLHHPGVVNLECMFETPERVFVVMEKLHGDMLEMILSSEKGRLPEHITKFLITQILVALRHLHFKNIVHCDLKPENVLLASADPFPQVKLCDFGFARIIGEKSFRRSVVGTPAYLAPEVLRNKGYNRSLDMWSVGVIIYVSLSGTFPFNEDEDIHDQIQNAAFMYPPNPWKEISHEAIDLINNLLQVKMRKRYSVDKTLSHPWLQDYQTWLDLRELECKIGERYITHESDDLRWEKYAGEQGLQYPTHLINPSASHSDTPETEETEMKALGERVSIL
The experiment in a line: PKC assay, fluorescence polarization (Example 2), PKC mu. Conditions: 5 μM ATP. The format is biochemical. The method, then:
The inhibition of PKC activity was measured by monitoring the production of phosphorylated peptide by fluorescence polarization at different concentrations of the inhibitor. Reactions were carried out in 96-well plate format with a total volume of 20 μL containing 20 mM HEPES, pH 7.4, 5 mM MgCl2, 0.2 mM CaCl2, 1 mM DTT, 0.02% Brij-35, 0.1 mg/mL phosphatidylserine, 0.02 mg/mL dioleoyl-sn-glycerol and 5 μM each of ATP and the peptide substrate. Compounds were first diluted serially in DMSO and then transferred to a solution containing the above concentrations of HEPES, MgCl2, CaCl2, DTT, and Brij-35 to yield 5× compound solutions in 2% DMSO, which was then added to the reaction solution. Reactions were initiated by the addition of PKC at a typical concentration as described in Table VI, and then allowed to incubate at room temperature for 20 min. At the end of this time, a combination of quench (EDTA) and detection (peptide tracer and antibody) reagents was added using the protocol of Invitrogen P2748. After a 30 min. period of incubation, the amount of phosphorylated peptide generated was measured by fluorescence polarization (Ex=485 nm, Em=535 nm) using a Tecan Polarian instrument.
On the technique in general: In fluorescence polarisation assays a small probe gives low polarisation when free and higher when bound to something large.

A further assay deals with Human primary T cells. The experiment in a line: IL-2 ELISA, Human Primary T Cell, Anti-CD3+CD28+ (Example 3). The conditions noted are these: Homo sapiens, T-cell, 24 h, anti-CD3+CD28 stimulation. The format is cell-based. An outline of the steps: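 Human primary T cells, 100,000 per well, were pre-incubated with compound in Yssel's medium for 1 h at 37 °C. The counter-assay used 0.5 ng/ml PMA with 0.1 uM ionomycin final.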
On the technique in general: ELISA stands for enzyme-linked immunosorbent assay.

Another assay deals with T2, PKC theta (Homo sapiens, UniProt Q04759).
T2 construct: purchased Upstate Biotechnologies, Temecula, CA 14-444
T2 sequence (Q04759 whole entry): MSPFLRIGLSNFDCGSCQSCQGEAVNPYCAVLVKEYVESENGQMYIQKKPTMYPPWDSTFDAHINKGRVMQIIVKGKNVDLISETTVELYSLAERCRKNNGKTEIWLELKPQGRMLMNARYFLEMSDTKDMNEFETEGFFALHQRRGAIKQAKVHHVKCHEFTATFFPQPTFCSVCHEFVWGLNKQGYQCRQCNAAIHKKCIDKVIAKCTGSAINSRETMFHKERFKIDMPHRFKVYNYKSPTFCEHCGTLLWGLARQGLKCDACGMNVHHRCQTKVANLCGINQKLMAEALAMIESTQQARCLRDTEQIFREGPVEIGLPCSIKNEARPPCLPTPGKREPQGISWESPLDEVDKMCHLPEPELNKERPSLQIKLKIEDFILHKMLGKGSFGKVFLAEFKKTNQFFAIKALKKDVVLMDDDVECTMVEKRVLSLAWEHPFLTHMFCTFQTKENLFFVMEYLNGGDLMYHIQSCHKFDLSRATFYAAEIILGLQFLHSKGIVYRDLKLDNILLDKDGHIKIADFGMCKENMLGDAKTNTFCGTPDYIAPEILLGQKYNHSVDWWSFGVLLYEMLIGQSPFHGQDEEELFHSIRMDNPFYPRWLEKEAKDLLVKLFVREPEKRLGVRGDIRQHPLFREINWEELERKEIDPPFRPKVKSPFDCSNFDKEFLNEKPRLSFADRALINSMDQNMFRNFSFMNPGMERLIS
As to the kind of experiment: PKC assay, fluorescence polarization (Example 2), PKC theta. The format is biochemical. Conditions: 5 μM ATP. An outline of the steps: (§1)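 Phosphorylated peptide product detected by fluorescence polarization, with EDTA quench plus peptide tracer and antibody. Reaction in 20 mM HEPES pH 7.4, 5 mM MgCl2, 0.2 mM CaCl2, 1 mM DTT, 0.02% Brij-35, phosphatidylserine and dioleoyl-sn-glycerol, with 5 μM ATP and 5 μM peptide. Started with enzyme, 20 min at room temperature.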

For the next assay, the target named is T3, PKC epsilon (Homo sapiens, UniProt Q02156).
T3 construct: purchased Upstate Biotechnologies, Temecula, CA 14-518
T3 sequence (Q02156 1-737): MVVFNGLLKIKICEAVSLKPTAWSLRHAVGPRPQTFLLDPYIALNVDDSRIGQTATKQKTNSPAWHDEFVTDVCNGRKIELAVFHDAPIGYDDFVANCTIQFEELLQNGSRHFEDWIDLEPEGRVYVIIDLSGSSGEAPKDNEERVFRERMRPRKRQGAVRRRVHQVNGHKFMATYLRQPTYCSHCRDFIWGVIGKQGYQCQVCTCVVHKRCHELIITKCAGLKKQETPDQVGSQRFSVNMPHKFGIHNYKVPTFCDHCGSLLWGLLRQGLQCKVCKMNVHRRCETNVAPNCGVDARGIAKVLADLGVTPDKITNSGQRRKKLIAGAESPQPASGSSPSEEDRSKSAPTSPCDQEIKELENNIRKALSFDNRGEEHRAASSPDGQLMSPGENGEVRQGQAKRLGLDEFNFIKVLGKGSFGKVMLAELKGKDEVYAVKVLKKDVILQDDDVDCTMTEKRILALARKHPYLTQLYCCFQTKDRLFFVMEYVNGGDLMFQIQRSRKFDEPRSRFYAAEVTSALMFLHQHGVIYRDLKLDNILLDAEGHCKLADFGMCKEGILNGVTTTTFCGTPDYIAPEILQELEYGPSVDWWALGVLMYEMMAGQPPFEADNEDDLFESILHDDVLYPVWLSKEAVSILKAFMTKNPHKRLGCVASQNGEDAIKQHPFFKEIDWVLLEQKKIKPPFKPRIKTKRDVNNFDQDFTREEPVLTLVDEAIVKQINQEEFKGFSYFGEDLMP
The experiment in a line: PKC assay, fluorescence polarization (Example 2), PKC epsilon. The conditions noted are these: 5 μM ATP. The format is biochemical. An outline of the steps:
as §1

Turning to `CN1CCN(c2ccc(Nc3ncc(C(F)(F)F)c(NC4CC(C)(C)N(C)C(C)(C)C4)n3)cc2C(F)(F)F)CC1` [Compound I-38], the IC50 at PKC mu was found to be 33 nM; in the assay on Human primary T cells, 196 nM; on PKC theta, 16 nM; on PKC epsilon, 506 nM.
